Article PMC6934184, “Selective DNA-PKcs inhibition extends the therapeutic index of localized radiotherapy and chemotherapy” (The Journal of Clinical Investigation, 2019)

Target: T1, EPHB2 (Homo sapiens, UniProt P29323)
T1 construct: purchased Thermo Fisher Scientific (Life Technologies) SelectScreen
Test: SelectScreen Z'LYTE
Type: biochemical
In short: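 NU5455 was profiled across the SelectScreen Broad panel of kinase activity and binding assays. Z'LYTE reactions such as CSF1R ran at apparent Km ATP, while the Adapta CAMK1 assay used ATP listed as 10. Values are given as percent.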

T1 sequence (P29323 19-1055): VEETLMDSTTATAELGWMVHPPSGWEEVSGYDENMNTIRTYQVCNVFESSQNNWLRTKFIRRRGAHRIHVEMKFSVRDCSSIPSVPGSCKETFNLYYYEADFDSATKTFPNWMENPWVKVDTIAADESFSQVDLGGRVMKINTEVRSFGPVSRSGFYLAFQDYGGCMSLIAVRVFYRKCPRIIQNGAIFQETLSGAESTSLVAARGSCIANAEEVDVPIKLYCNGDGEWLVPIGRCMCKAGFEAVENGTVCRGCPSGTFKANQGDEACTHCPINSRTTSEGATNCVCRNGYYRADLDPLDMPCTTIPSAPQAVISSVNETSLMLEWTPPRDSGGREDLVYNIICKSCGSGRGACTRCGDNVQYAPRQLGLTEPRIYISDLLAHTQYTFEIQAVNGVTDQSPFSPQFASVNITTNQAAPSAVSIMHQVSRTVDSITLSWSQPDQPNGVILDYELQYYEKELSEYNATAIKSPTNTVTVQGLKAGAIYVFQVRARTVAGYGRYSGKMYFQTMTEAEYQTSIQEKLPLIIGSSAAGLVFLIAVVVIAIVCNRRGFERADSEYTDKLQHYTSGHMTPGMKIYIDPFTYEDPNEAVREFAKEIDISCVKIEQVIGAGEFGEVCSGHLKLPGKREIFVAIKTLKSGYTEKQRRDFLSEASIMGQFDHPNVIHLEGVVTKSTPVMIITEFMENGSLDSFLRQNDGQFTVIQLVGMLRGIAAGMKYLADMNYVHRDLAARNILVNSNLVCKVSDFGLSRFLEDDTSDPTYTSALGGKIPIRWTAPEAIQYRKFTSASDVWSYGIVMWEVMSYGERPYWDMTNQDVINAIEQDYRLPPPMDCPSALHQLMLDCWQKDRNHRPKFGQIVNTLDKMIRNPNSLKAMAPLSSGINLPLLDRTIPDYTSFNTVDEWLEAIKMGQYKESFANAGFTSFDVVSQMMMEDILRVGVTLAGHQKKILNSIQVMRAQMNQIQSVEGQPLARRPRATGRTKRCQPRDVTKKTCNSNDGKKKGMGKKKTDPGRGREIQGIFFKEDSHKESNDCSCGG

CN(C(=O)CN1CCOCC1)c1ccc2sc3c(-c4cccc5c(=O)cc(N6CC7CCC(C6)O7)oc45)cccc3c2c1 [NU5455]
inhibition at 1 µM: -0.1%
